This is an account of results in patent US20220380366A1, “HETEROCYCLIC SULFOXIMINE COMPOUND AND INTERMEDIATE THEREOF, PREPARATION METHOD THEREFOR, AND APPLICATION THEREOF” (priority 2019, published 2022).

The structures appear in SMILES notation. Read-outs that look alike come from different tables or passages of the source.

For test [1], the target named is T1, RET(V804M) mutant (Homo sapiens, UniProt P07949, V804M).
T1 construct: purchased Reaction Biology Corporation (contract assay; enzyme is the CRO's)
The experiment in a line: Biochemical IC50 of RET(V804M) mutant (33P-ATP filter binding, Reaction Biology). As to the method:
(§1) For detailed test methods, the following references were referred to: T. Anastassiadis, S. W. Deacon, K. Devarajan, H. Ma, J. R. Peterson. […] Nat. Biotech.
(§2) The compounds of the present invention were dissolved in dimethyl sulfoxide (DMSO) to prepare 10 mM stock solutions, and ten different doses by 3-fold serial dilutions from 10 mM were prepared. The ATP concentration used in this determination was 1 μM.
(§3) Base reaction buffer: 20 mM 4-(2-hydroxyethyl)-1-piperazineethanesulfonic acid buffer (Hepes, pH 7.5), 10 mM magnesium chloride, 1 mM ethylene glycol-bis(3-aminoethylether)-N,N,N′,N′-tetraacetic acid (EGTA), 0.02% Brij™-35 (purchased from ThermoFisher Scientific), 0.02 mg/mL bovine serum albumin (BSA), 0.1 mM sodium orthovanadate (Na3VO4), 2 mM dithiothreitol (DTT), 1% dimethyl sulfoxide (DMSO).
(§4) a) adding the corresponding substrate to a freshly prepared base reaction buffer;
(§5) b) adding necessary cofactors;
(§6) c) adding kinase and shake gently;
(§7) d) adding the compounds in DMSO using Acoustic technology (Echo550; nanoliter range) and incubating at room temperature for 20 minutes;
(§8) e) adding 33P-ATP (specific activity 10 μCi/μL) to initiate the reaction;
(§9) f) incubating the kinase reaction at room temperature for 2 hours;
(§10) g) spotting the resultant of reaction on P81 ion exchange paper (purchased from Whatman);
(§11) h) detecting kinase activity by filter binding assay.
(§12) IC50 values were generated using Prism (GraphPad software).

The test system of test [2] is Phospho-ERK in LC-2/ad lung cancer cells. In words: Phospho-ERK ELISA in LC-2/ad tumor cells. Type of test: cell-based. The conditions noted are these: Homo sapiens, 1 h, read-out: Cell IC50 Phospho-ERK. As to the method: (§13) The compounds of the present invention were dissolved in dimethyl sulfoxide (DMSO) to prepare 10 mM stock solutions, and ten different doses by 3-fold serial dilutions from 10 mM were prepared. An ELISA assay format was used in the test.
(§14) PathScan® Phospho-Ret (panTyr) and p44/42 MAPK (Thr202/Tyr204) (ERK) Sandwich ELISA kits were purchased from Cell Signaling Technology. The LC-2/ad lung cancer cell line was purchased from Sigma-Aldrich. […] The medium was supplemented with 10% fetal bovine serum (FBS), 100 μg/mL penicillin and 100 μg/mL streptomycin, and the cultures were maintained at 37° C. in a humidified atmosphere of 5% CO2 and 95% air.
(§15) a) 1.5×10^4 LC-2/ad cells were seeded in the wells of a 96-well tissue culture plate overnight;
(§16) b) the cells were treated with DMSO or the test compound in DMSO (the initial concentration was 1 μM, and ten doses by 3-fold serial dilutions) for one hour;
(§17) The plate was shaken for 1 minute, then placed on a rocking platform at 4° C. for 30 minutes;
(§18) d) 80 μL/well of lysate was added to the appropriate wells of each ELISA plate and the plate was incubated overnight at 4° C. on a rocking platform;
(§19) e) the contents of the plate were discarded into a container and the wells were washed for four times with 200 μL/well of 1×ELISA wash buffer;
(§20) f) 100 μL of reconstituted Phospho-Ret(panTyr) or Phospho-ERK(Thr202/Tyr204; p44/42MAPK) detection antibody was added to the appropriate wells and the plate was incubated at 37° C. for 1 hour;
(§21) g) the washing procedure was repeated and 100 μL of reconstituted HRP-linked secondary antibody was added to each well of two plates and the plates were incubated at 37° C. for 30 minutes;
(§22) h) the washing procedure was repeated, 100 μL of TMB substrate was added to each well, and the plates were incubated at 37° C. for 45 minutes;
(§23) i) 100 μL of STOP solution was added to each well and the plate was gently shaken for a few seconds.

The subject of test [3] is Phospho-RET in LC-2/ad lung cancer cells. In words: Phospho-RET ELISA in LC-2/ad tumor cells. Format: cell-based. The conditions noted are these: Homo sapiens, LC-2-ad, 1 h, read-out: Cell IC50 Phospho-RET. As to the method: as §13, §14, §15, §16, §17, §18, §19, §20, §21, §22, §23
The target of test [4] is T2, RET-CCDC6 (Homo sapiens, UniProt P07949).
T2 construct: CCDC6 (fusion partner, UniProt Q16204); purchased Reaction Biology Corporation (contract assay; enzyme is the CRO's); the other entry of the earlier key: CCDC6 (Q16204, Coiled-coil domain-containing protein 6)
T2 sequence (P07949 with tags, fused parts or gaps): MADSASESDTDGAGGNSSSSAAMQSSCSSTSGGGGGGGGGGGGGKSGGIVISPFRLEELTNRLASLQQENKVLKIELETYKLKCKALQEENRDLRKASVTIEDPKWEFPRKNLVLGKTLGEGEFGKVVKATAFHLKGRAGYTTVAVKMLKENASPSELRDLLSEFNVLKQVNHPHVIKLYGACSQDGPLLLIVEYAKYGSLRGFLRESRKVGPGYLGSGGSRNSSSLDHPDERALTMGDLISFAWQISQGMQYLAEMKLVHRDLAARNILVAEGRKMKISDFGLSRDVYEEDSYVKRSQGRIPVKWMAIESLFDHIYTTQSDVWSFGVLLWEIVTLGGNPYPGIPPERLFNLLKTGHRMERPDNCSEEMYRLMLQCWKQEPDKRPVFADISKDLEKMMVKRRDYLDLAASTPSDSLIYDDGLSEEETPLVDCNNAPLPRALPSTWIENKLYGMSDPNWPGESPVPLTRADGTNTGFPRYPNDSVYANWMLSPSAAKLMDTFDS
The experiment in a line: Biochemical IC50 of RET-CCDC6 fusion (33P-ATP filter binding, Reaction Biology). As to the method:
as §1, §2, §3, §4, §5, §6, §7, §8, §9, §10, §11, §12

Test [5] has as its target T3, wild-type RET kinase (Homo sapiens, UniProt P07949).
T3 construct: purchased Reaction Biology Corporation (contract assay; enzyme is the CRO's)
In words: Biochemical IC50 of wild-type RET kinase (33P-ATP filter binding, Reaction Biology). As to the method:
as §1, §2, §3, §4, §5, §6, §7, §8, §9, §10, §11, §12

Where [6] appears, read: RET(V804M) mutant, ATP 1 μM, 33P-ATP filter binding, read-out: Biochemical IC50 RET (V804M).
Setting [7] is: RET-CCDC6 fusion, ATP 1 μM, 33P-ATP filter binding, read-out: Biochemical IC50 RET-CCDC6.
Setting [8] is: wild-type RET kinase, ATP 1 μM, 33P-ATP filter binding, read-out: Biochemical IC50 RET.

T1 sequence (P07949 29-1114 V804M): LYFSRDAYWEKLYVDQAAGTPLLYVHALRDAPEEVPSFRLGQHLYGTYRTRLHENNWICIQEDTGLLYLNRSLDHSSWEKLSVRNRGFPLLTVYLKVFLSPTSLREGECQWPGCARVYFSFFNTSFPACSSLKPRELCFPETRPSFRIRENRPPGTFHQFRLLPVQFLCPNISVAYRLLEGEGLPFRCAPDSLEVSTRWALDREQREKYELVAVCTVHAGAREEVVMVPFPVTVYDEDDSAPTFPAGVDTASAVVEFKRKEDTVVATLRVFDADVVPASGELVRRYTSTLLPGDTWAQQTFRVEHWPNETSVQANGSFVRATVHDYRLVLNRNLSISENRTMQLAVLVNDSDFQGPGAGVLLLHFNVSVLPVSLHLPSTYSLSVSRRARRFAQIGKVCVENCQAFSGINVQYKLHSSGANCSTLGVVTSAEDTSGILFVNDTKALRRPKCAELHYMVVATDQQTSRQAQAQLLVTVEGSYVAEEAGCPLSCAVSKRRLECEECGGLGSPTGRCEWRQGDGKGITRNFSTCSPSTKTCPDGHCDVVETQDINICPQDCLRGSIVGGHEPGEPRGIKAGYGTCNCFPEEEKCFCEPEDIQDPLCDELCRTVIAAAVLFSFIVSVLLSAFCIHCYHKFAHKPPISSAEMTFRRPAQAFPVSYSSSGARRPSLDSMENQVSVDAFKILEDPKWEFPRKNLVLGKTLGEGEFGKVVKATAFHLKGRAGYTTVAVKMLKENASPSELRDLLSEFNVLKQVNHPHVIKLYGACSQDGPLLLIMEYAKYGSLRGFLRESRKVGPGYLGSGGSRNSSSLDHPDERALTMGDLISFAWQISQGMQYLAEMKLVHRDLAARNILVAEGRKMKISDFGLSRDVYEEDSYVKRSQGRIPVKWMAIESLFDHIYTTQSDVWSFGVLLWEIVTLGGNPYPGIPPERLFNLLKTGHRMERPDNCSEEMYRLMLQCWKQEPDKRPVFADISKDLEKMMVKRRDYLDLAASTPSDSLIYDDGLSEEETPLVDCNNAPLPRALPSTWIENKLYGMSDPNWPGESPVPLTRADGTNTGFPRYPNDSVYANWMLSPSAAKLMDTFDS
T3 sequence (P07949 29-1114): as the sequence (P07949 29-1114 V804M) above, with M776V counted along it

For the compound `COc1ccc(CN=S2(=O)CCN(c3ccc(-c4nc(-c5cnn(C)c5)cn5ncc(C#N)c45)cn3)CC2)cn1` [Ex. 21, 4-(6-(1-(((6-methoxypyridin-3-yl)methyl)imino)-1-oxothiomorpholinyl)pyridin-3-yl)-6-(1-methyl-1H-pyrazole-4-yl)pyrazolo[1,5-a]pyrazine-3-carbonitrile], the IC50 in test [1] was determined as 7.83 nM; in test [2] it was 6.42 nM; in test [3], 21.3 nM; in test [4], 0.528 nM; in test [5], 1.02 nM.

For `COc1ccc(N=S2(=O)CCN(c3ccc(-c4cc(-c5cnn(C)c5)cn5ncc(C#N)c45)cn3)CC2)cn1` [Ex. 15, 4-(6-(1-((6-methoxypyridin-3-yl)imino)-1-oxothiomorpholinyl)pyridin-3-yl)-6-(1-methyl-1H-pyrazole-4-yl)pyrazolo[1,5-a]pyridine-3-carbonitrile], the IC50 amounted to 1.72 nM in test [1] (setting [6]); 321 nM in test [2]; 0.51 nM in test [3]; 0.518 nM in test [4] (setting [7]); 0.759 nM in test [5] (setting [8]).

With `CC(C)CN=S1(=O)CCN(c2ccc(-c3cc(-c4cnn(C)c4)cn4ncc(C#N)c34)cn2)CC1` [Ex. 13, 4-(6-(1-(isobutylimino)-1-oxothiomorpholinyl)pyridin-3-yl)-6-(1-methyl-1H-pyrazole-4-yl)pyrazolo[1,5-a]pyridine-3-carbonitrile], the IC50 is 5.1 nM in test [1]; 6.55 nM in test [2]; 16.3 nM in test [3]; 0.416 nM in test [4]; 0.89 nM in test [5].

On to `Cn1cc(-c2cc(-c3ccc(N4CCC(N=S(C)(C)=O)CC4)nc3)c3c(C#N)cnn3c2)cn1` [Ex. 16, 4-(6-(4-((dimethyloxo-λ^4-sulfinyl)amino)piperidin-1-yl)pyridin-3-yl)-6-(1-methyl-1H-pyrazole-4-yl)pyrazolo[1,5-a]pyridine-3-carbonitrile], for which the IC50 in test [1] is 5.55 nM; in test [2], 7.19 nM; in test [3] it was 66.4 nM; in test [4], 0.619 nM; in test [5], 1.16 nM.

For the compound `Cn1cc(-c2cn3ncc(C#N)c3c(-c3ccc(N4CCS(=N)(=O)CC4)nc3)n2)cn1` [Ex. 20, 4-(6-(1-imino-1-oxothiomorpholinyl)pyridin-3-yl)-6-(1-methyl-1H-pyrazole-4-yl)pyrazolo[1,5-a]pyrazine-3-carbonitrile], the IC50 in test [1] came out at 7.91 nM; in test [2] it was 7.77 nM; in test [3], 91.4 nM; in test [4] it was 0.677 nM; in test [5] it was 1.16 nM.

As to `COc1ccc(CN=S2(=O)CCN(c3ccc(-c4cc(-c5cnn(C)c5)cn5ncc(C#N)c45)cn3)CC2)cn1` [Ex. 14, 4-(6-(1-(((6-methoxypyridin-3-yl)methyl)imino)-1-oxothiomorpholinyl)pyridin-3-yl)-6-(1-methyl-1H-pyrazole-4-yl)pyrazolo[1,5-a]pyridine-3-carbonitrile], the IC50 in test [1] is 5.21 nM; in test [2], 82.5 nM; in test [3], 11.5 nM; in test [4], 0.336 nM; in test [5], 0.657 nM.

As to `Cn1cc(-c2cc(-c3ccc(N4CCS(=N)(=O)CC4)nc3)c3c(C#N)cnn3c2)cn1` [Ex. 12, 4-(6-(1-imino-1-oxothiomorpholinyl)pyridin-3-yl)-6-(1-methyl-1H-pyrazole-4-yl)pyrazolo[1,5-a]pyridine-3-carbonitrile], the IC50 was found to be 5.55 nM in test [1] (setting [6]); 246 nM in test [2]; 11.5 nM in test [3]; 0.523 nM in test [4] (setting [7]); 0.849 nM in test [5] (setting [8]).

Consider `Cn1cc(-c2cc(-c3ccc(N4CCC(N=[S@](C)(=O)c5ccccc5)CC4)nc3)c3c(C#N)cnn3c2)cn1` [Ex. 18, 4-(6-(4-(((R)—S-methyl-S-phenyl-oxo-λ^4-sulfinyl)amino)piperidin-1-yl)pyridin-3-yl)-6-(1-methyl-1H-pyrazole-4-yl)pyrazolo[1,5-a]pyridine-3-carbonitrile], for which the IC50 in test [1] (setting [6]) came out at 4.72 nM; in test [2], 6.83 nM; in test [3], 7.1 nM; in test [4] (setting [7]) it was 0.501 nM; in test [5] (setting [8]), 0.907 nM.
